From US6239131A, “1,5 Benzodiazepine derivatives” (Zeria Pharmaceutical Co., Ltd., priority 1996, dated 2001)
pKi: −log10 of the molar value. Where two headings read alike, the source gives them in different places.

Key:
CCK-B receptors = biological target: T1, CCK-B receptors (Cavia porcellus, UniProt H0VZC5); test: Measurement of Binding Affinity for CCK-B Receptors; set-up: species or system Hartley-strain guinea pig
T1 construct: Cerebral cortices were removed from Hartley-strain guinea pigs, the cerebral cortices were homogenized; from tissue; host or cells: cerebral cortex of Hartley-strain guinea pigs, crude membrane pellet
T1 sequence (H0VZC5 1-426): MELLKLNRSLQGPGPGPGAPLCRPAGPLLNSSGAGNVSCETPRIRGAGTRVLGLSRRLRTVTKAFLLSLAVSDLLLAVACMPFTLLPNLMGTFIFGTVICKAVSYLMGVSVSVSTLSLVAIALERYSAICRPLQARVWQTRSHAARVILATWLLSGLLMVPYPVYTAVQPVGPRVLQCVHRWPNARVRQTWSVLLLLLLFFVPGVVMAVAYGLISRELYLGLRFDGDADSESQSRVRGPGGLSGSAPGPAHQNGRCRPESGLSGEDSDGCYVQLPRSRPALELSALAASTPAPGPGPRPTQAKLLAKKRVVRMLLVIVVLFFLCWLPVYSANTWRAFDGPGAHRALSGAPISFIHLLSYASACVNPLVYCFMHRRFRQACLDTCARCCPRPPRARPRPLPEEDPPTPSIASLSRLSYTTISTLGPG
Protocol: Cerebral cortices were removed from Hartley-strain guinea pigs, the cerebral cortices were homogenized in 50 volumes of 50 mM Tris-HCl buffer (pH7.4) and centrifuged at 50000×g for 10 minutes. The Tris-HCl buffer was added to the pellet and recentrifuged as above two times. The final pellet was rehomogenized in 10 mM HEPES buffer (pH 6.5, which hereinafter be abbreviated as "solvent") containing 5 mM MgCl2, 1 mM EGTA, 0.25 mg/ml bacitracin and 130 mM NaCl, and used as the receptor preparation.
Binding assay was measured as follows. Fifty μl of [^3 H]CCK-8 (at the final concentration of 1.0 nM) and 900 μl of the receptor preparation (800 μg protein/tube) were added to 50 μl of either solvent, CCK-8 (1 μM) or a test compound. These ware reacted at 25° C. for 2 hours. After the reaction, the mixture was filtrated through Whatman GF/B filter presoaked in 0.1% BSA. The filter was washed with 3 ml of ice-cold 50 mM Tris-HCl buffer (pH 7.4) four times, immediately after the filtration. The filter was soaked in the ACS-II scintillation cocktail for a day and radioactivity was measured using a liquid scintillation counter. Non-specific binding was defined as the radioactivity in the presence of 1 μM CCK-8. Specific binding was defined as the difference between total binding (used solvent without CCK-8) and non-specific binding. Inhibitor dissociation constant (Ki) of each test compound was determined from the inhibition of specific [^3 H]CCK-8 binding.

[1] = system: pentagastrin-stimulated acid secretion; test: Measurement of Inhibition of Pentagastrin-stimulated Acid Secretion; format: in vivo, male Sprague-Dawley (SD)-strain rats; settings: intraduodenal, rat, acid output from 1 to 4 hours after administration, pentagastrin 15 μg/kg/hr
Protocol: Male Sprague-Dawley (SD)-strain rats were used. Each rat was operated to ligate the pylorus, and equip with a duodenal catheter and gastric fistula under a ether anesthesia. After the operation, each rat was placed in a Bollman-type cage and continuously infused pentagastrin (15 μg/kg/hr) through the tail vein. Test compounds were suspended in 0.5% aqueous sodium carboxymethylcellulose (which hereinafter be abbreviated as "vehicle"). Vehicle or test compound was administered through the intraduodenal catheter 1 hour after the beginning of pentagastrin infusion. Acidity of the collected gastric juice was measured by an automatic titillation device. Acid output was determined by multiplying the volume by the acidity of gastric juice. […] [formula]

CCK-A receptors = biological target: T2, CCK-A receptors (Cavia porcellus, UniProt Q63931); test: Measurement of Binding Affinity for CCK-A Receptors; set-up: species or system Hartley-strain guinea pig; settings: inhibition of specific [3H]L-364,718 (0.2 nM) binding; guinea pig pancreas; 25° C., 2 hours; pH 6.5
T2 construct: Pancreases were removed from Hartley-strain guinea pigs, the pancreases were homogenized; from tissue; host or cells: pancreas of Hartley-strain guinea pigs, crude membrane pellet
T2 sequence (Q63931 1-430): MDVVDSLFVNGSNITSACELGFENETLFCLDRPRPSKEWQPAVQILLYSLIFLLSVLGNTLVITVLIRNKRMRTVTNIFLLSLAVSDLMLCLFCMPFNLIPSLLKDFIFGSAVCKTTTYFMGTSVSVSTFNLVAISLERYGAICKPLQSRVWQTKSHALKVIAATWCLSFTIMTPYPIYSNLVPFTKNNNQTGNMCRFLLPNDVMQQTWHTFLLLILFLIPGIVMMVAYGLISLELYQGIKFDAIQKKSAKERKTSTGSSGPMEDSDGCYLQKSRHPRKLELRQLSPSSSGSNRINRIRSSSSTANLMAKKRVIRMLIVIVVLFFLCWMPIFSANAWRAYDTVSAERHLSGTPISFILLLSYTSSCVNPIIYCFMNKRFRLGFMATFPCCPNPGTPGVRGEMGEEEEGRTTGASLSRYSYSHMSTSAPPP
Protocol: Pancreases were removed from Hartley-strain guinea pigs, the pancreases were homogenized in 40 volumes of 10 mM PIPES buffer (pH 6.5, which hereinafter be abbreviated as "solvent") containing 1 mM EGTA, 30 mM MgCl2, 0.02% bacitracin, 0.02% soybean trypsin inhibitor and 0.3 M sucrose. The homogenate was filtrated through gauze and centrifuged at 50000×g for 10 minutes. Solvent was added to the pellet and recentrifuged as above. The final pellet thus obtained was homogenized in 40 volumes of solvent and used as the receptor preparation.
Binding assay was measured as follows. Fifty μl of [^3 H]L-364, 718 (at the final concentration of 0.2 nM) and 900 μl of the receptor preparation (50 μg protein/tube) were added to 50 μl of solvent, or L-364, 718 (1 μM) or a test compound. This mixture was incubated at 25° C. for 2 hours. After the reaction, the mixture was filtrated through Whatman GF/B filter presoaked in 0.1% BSA (bovine serum albumin). The filter was washed with 3 ml of ice-cold 10 mM PIPES buffer (pH 6.5) three times, immediately after the filtration. The filter was soaked in the ACS-II scintillation cocktail for one day and radioactivity was measured using a liquid scintillation counter. Non-specific binding was defined as the radioactivity in the presence of 1 μM L-364, 718. Specific binding was defined as the difference between total binding (used solvent without L-364, 718) and non-specific binding. lnhibitor dissociation constant (Ki) of each test compound was determined from the inhibition of specific [^3 H]L-364, 718 binding.

[2] = inhibition of specific [3H]CCK-8 (1.0 nM) binding, guinea pig cerebral cortex, 25° C., 2 hours, pH 6.5, read-out: Ki (CCK-B receptors)

Structure (SMILES)	pKi (CCK-B receptors; [2])	inhibition in vivo at 30 mg/kg [1]	pKi (CCK-A receptors)	inhibition in vivo at 3 mg/kg [1]	inhibition in vivo at 1 mg/kg [1]	pKi (CCK-B receptors)
Cc1ccc2c(c1)N(CC(=O)c1ccccc1C)C(=O)C(NC(=O)Nc1ccc(C)c(C(=O)O)c1)CN2C(=O)CC(C)(C)C (stereo not drawn) [Example 120, 5-[3-[1-(2-toluoylmethyl)-2-oxo-5-(3,3-dimethylbutanoyl)-8-methyl-1,3,4,5-tetrahydro-2H-1,5-benzodiazepin-3-yl]ureido]-2-methylbenzoic acid]	9.12	88.3%	6.30	–	–	–
CC(C)(C)C(=O)CN1C(=O)C(NC(=O)Nc2cccc(SCC(=O)O)c2)CN(c2ccccc2)c2ccccc21 (stereo not drawn) [Example 33, 3-[3-(1-tert-butylcarbonylmethyl-2-oxo-5-phenyl-1,3,4,5-tetrahydro-2H-1,5-benzodiazepin-3-yl)ureido]phenylthioacetic acid]	9.85	–	6.61	77.2%	–	–
Cc1ccc2c(c1)N(CC(=O)c1ccccc1C)C(=O)C(NC(=O)Nc1cccc(C(=O)O)c1)CN2C(=O)C1CCCC1 (stereo not drawn) [Example 87, 3-[3-[1-(2-toluoylmethyl)-2-oxo-5-cyclopentylcarbonyl-8-methyl-1,3,4,5-tetrahydro-2H-1,5-benzodiazepin-3-yl]ureido]benzoic acid]	8.86	80.1%	6.92	–	–	–
Cc1ccc2c(c1)N(CC(=O)c1ccccc1C)C(=O)C(NC(=O)Nc1cccc(C(=O)O)c1)CN2C(=O)c1cccs1 (stereo not drawn) [Example 104, 3-[3-[1-(2-toluoylmethyl)-2-oxo-5-(2-thenoyl)-8-methyl-1,3,4,5-tetrahydro-2H-1,5-benzodiazepin-3-yl]ureido]benzoic acid]	9.23	–	6.89	–	58%	–
Cc1cccc(NC(=O)N[C@@H]2N=C(c3ccccc3)c3ccccc3N(C)C2=O)c1 [L-365, 260, reference compound]	–	46.5%	9.19	–	–	7.61
CC(C)(C)C(=O)CN1C(=O)C(NC(=O)Nc2cccc(C(=O)O)c2)CN(c2ccccc2)c2ccccc21 (racemic) [Example 70 (racemate), 3-[3-(1-tert-butylcarbonylmethyl-2-oxo-5-phenyl-1,3,4,5-tetrahydro-2H-1,5-benzodiazepin-3-yl)ureido]benzoic acid]	9.11	–	6.52	76.5%	–	–
CC(C)(C)C(=O)CN1C(=O)C(NC(=O)Nc2cccc(C(=O)O)c2)CN(c2ccccc2F)c2ccccc21 (stereo not drawn) [Example 101, 3-[3-[1-tert-butylcarbonylmethyl-2-oxo-5-(2-fluorophenyl)-1,3,4,5-tetrahydro-2H-1,5-benzodiazepin-3-yl]ureido]benzoic acid]	8.95	–	6.33	78%	–	–
CC(C)(C)C(=O)CN1C(=O)C(NC(=O)Nc2cccc(C(=O)O)c2)CN(c2ccccc2)c2ccccc21 (single isomer, unassigned; (-)) [Example 70 (-form), (-)-3-[3-(1-tert-butylcarbonylmethyl-2-oxo-5-phenyl-1,3,4,5-tetrahydro-2H-1,5-benzodiazepin-3-yl)ureido]benzoic acid]	9.44	–	6.59	–	84.8%	–
CC(C)(C)C(=O)CN1C(=O)C(NC(=O)Nc2cccc(SCC(=O)O)c2)CN(c2ccccc2)c2ccccc21 (single isomer, unassigned; (-)) [Example 88 (-form)]	9.96	–	7.78	–	68.4%	–
Cc1ccc2c(c1)N(CC(=O)c1ccccc1C)C(=O)C(NC(=O)Nc1cccc(C(=O)O)c1)CN2C(=O)CC(C)(C)C (stereo not drawn) [Example 109, 3-[3-[1-(2-toluoylmethyl)-2-oxo-5-(3,3-dimethylbutanoyl)-8-methyl-1,3,4,5-tetrahydro-2H-1,5-benzodiazepin-3-yl]ureido]benzoic acid]	8.74	–	6.46	–	54%	–
